Reference: US10421751B2, “Dihydro-2H-benzo[b][1,4]oxazine sulfonamide and related compounds for use as agonists of RORγ and the treatment of disease” (Lycera Corporation, priority 2015, dated 2019)

What was measured:
RORγ-LBD = molecular target: T1, RORγ-LBD (Homo sapiens, UniProt P51449); assay: RORγ-Ligand Binding Domain (LBD) TR-FRET Assay; format: biochemical; conditions: for EC50: in presence of 2 μM RORγ antagonist ursolic acid, SRC1 coactivator peptide; for TR-FRET Assay Max Response: upper plateau of 4-parameter fit, signal in the absence of ursolic acid or test compound set as 100
T1 construct: made in house; host or cells: SF9 cells, baculovirus expression system; used as diluted lysate
T1 sequence (P51449 269-508 limits assumed): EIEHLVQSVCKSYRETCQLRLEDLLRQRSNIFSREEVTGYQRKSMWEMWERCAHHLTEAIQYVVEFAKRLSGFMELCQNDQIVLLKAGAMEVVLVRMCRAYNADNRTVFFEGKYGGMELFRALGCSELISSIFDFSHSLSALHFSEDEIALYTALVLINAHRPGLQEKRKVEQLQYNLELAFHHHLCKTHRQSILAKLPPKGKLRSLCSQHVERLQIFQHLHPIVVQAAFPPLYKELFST
Method: HIS-tagged RORγ-LBD protein was expressed in SF9 cells using a baculovirus expression system. The lysate was diluted in assay buffer (50 mM Tris pH 7.0, 50 mM KCl, 1 mM EDTA, 0.1 mM DTT, 0.01% BSA) to obtain RORγ-LBD final concentration of ˜3 nM in a 384-well assay plate (need to titrate for each batch of protein).
A stock of biotinylated-LXXLL peptide from coactivator SRC1 (Biotin-[…]) was prepared in assay buffer and added to each well (200 nM final concentration). A solution of Europium tagged anti-HIS antibody (0.6 nM final concentration) and APC-conjugated streptavidin (30 nM final concentration) were also added to each well. RORγ antagonist ursolic acid was also included at a final concentration of 2 μM. Compounds were diluted in DMSO and further diluted in assay buffer with a final DMSO concentration at 1%.
The final assay mixture was incubated overnight at 4° C. or 2 hours at room temperature, and the fluorescence signal was measured on an Envision plate reader: (Excitation filter=340 nm; APC emission=665 nm; Europium emission=615 nm; dichroic mirror=D400/D630; delay time=100 μs, integration time=200 μs). 50% Effective concentration (EC50) values for test compounds were calculated from the quotient of the fluorescence signal at 665 nm divided by the fluorescence signal at 615 nm. The quotient of the fluorescence signals in the absence of ursolic acid or test compound is set as 100. Max Response is defined as the upper plateau in the signal as determined by line-fit using a 4-parameter logistic model in PRISM (GraphPad).

Gal4-RORγ-LBD = molecular target: T2, Gal4-RORγ-LBD (Homo sapiens, UniProt P51449); assay: Gal4-RORγ Luciferase Reporter Assay in HEK-293T Cells; format: cell-based; conditions: for EC50: HEK-293 cells, in presence of 2 μM ursolic acid, overnight incubation, read-out: Ga14-RORγ Assay EC50; for Ga14-RORγ Assay Max Response: upper plateau of 4-parameter fit, luciferase signal in the absence of ursolic acid or test compound defined at 100
T2 construct: expressed in transfected cells; pcDNA3.1neo plasmid, co-transfected with pGL4.31 Gal4-luciferase reporter
T2 sequence (P51449 269-508 limits assumed): T1 sequence (P51449 269-508 limits assumed)
Method: In the following protocol, HEK-293 cells were transfected with a construct comprising the Gal4 DNA binding domain fused to the ligand binding domain of RORγ (Gal4-RORγ-LBD) in a pcDNA3.1neo plasmid, and also with a reporter construct comprising pGL4.31 Gal4-luciferase (Promega). Control cells were prepared similarly using empty pcDNA3.1neo and pGL4.31 vectors.
Trans-IT reagent (Mirus, 60 μL) at room temperature was added drop wise to OptiMEM (Invitrogen, 1.5 ml). This reagent mixture was mixed by inversion then incubated for 5 to 30 minutes at room temperature. It then was added to a solution of both expression vectors (5 μg each), mixed, and incubated at room temperature for about 20 minutes. HEK-293 cells were harvested from incubation flasks by removing the media, treating with TrypLE Express (Invitrogen), and incubating until the cells detached from the bottom of the flask (approximately 2-5 minutes). 10 Million cells were collected by centrifugation and re-suspended in 10 mL of Dulbecco's Modified Eagle Medium, High Glucose (DMEM, Invitrogen) containing 10% Fetal Bovine Serum and 100 IU each of penicillin and streptomycin. The re-suspended cells and the transfection mixture were added to a T75 flask, mixed and incubated overnight at 37° C. and 5% CO2.
The cells were harvested as described above, counted, and centrifuged to obtain the desired number of cells, then re-suspended in complete growth media at 0.75×10^6 cells/mL. The RORγ antagonist, ursolic acid, was added to the cells at a final concentration of 2 μM. Cells were plated at 20 μL of cell suspension/well (10,000-15,000 cells/well) in white tissue culture treated 384 well plates. Test compounds were dissolved at 10 mM in DMSO then diluted into complete growth medium to 5× the final intended test concentration. These drug stock solutions, 5 μL/well were added to the tissue culture plate. The final DMSO concentration was 0.2%. The plates were briefly centrifuged then incubated overnight at 37° C. and 5% CO2. To conduct the assay, the tissue culture plates were allowed to equilibrate to room temperature and One-Glo luciferase reagent (Promega, 25 μL/well) was added. The plates were briefly centrifuged then incubated at room temperature for 10 minutes. The luciferase intensity was read on an Envision plate reader (Perkin Elmer). RORγ activity was determined relative to controls and plotted as a function of test compound concentration using PRISM (GraphPad) to determine a 50% effective concentration (EC50). The luciferase signal in the absence of ursolic acid or test compound is defined at 100. The Max Response is the upper plateau in the signal as determined by line-fit using a 4-parameter logistic model in PRISM (GraphPad).

| SMILES | EC50 (RORγ-LBD) | EC50 (Gal4-RORγ-LBD) | TR-FRET Assay Max Response (RORγ-LBD) | Ga14-RORγ Assay Max Response (Gal4-RORγ-LBD) |
| --- | --- | --- | --- | --- |
| CCOc1ncc(C(F)(F)F)cc1S(=O)(=O)N1C[C@H](CCc2n[nH]c(=O)o2)Oc2ccc(/C=C/c3c(Cl)cccc3C(F)(F)F)cc21 | 100 to 5000 nM | 100 to 5000 nM | **** (a value greater than 200) | ** (a value in the range of greater than 90 to 150) |
| C/C(=C\c1ccc2c(c1)N(S(=O)(=O)c1cccc(C(F)(F)F)c1)C[C@H](CCn1ccnn1)O2)c1c(F)cccc1Cl | < 100 nM | 100 to 5000 nM | *** (a value in the range of greater than 150 to 200) | ** (a value in the range of greater than 90 to 150) |
| C/C(=C\c1ccc2c(c1)N(S(=O)(=O)c1cccc(C(F)(F)F)c1)C[C@H](CCOc1noc(=O)[nH]1)O2)c1c(F)cccc1Cl | < 100 nM | 100 to 5000 nM | *** (a value in the range of greater than 150 to 200) | ** (a value in the range of greater than 90 to 150) |
| O=c1[nH]nc(CC[C@H]2CN(S(=O)(=O)c3cccc(OC(F)F)c3)c3cc(/C=C/c4c(Cl)cccc4C(F)(F)F)ccc3O2)o1 | < 100 nM | 100 to 5000 nM | **** (a value greater than 200) | ** (a value in the range of greater than 90 to 150) |
| C/C(=C\c1ccc2c(c1)N(S(=O)(=O)c1cccc(C(F)(F)F)c1)C[C@H](CCc1noc(=O)[nH]1)O2)c1c(F)cccc1Cl | < 100 nM | 100 to 5000 nM | *** (a value in the range of greater than 150 to 200) | *** (a value in the range of greater than 150 to 200) |
| C/C(=C\c1ccc2c(c1)N(S(=O)(=O)c1cccc(C(F)(F)F)c1)C[C@H](CCCn1cc(C(=O)O)nn1)O2)c1c(F)cccc1Cl | < 100 nM | 100 to 5000 nM | *** (a value in the range of greater than 150 to 200) | ** (a value in the range of greater than 90 to 150) |
| C/C(=C\c1ccc2c(c1)N(S(=O)(=O)c1cccc(C(F)(F)F)c1)C[C@H](Oc1noc(=O)[nH]1)C2)c1c(F)cccc1Cl | 100 to 5000 nM | 100 to 5000 nM | *** (a value in the range of greater than 150 to 200) | ** (a value in the range of greater than 90 to 150) |
| C/C(=C\c1ccc2c(c1)N(S(=O)(=O)c1cccc(C(F)(F)F)c1)C[C@H](CCCn1ccnc1)O2)c1c(F)cccc1Cl | < 100 nM | 100 to 5000 nM | *** (a value in the range of greater than 150 to 200) | ** (a value in the range of greater than 90 to 150) |
| C/C(=C\c1ccc2c(c1)N(S(=O)(=O)c1ccc(F)c(OC(F)F)c1)C[C@H](CCc1n[nH]c(=O)o1)O2)c1c(F)cccc1Cl | < 100 nM | 100 to 5000 nM | **** (a value greater than 200) | ** (a value in the range of greater than 90 to 150) |

The next lines start with results.

| EC50 (RORγ-LBD) | EC50 (Gal4-RORγ-LBD) | SMILES | TR-FRET Assay Max Response (RORγ-LBD) | Ga14-RORγ Assay Max Response (Gal4-RORγ-LBD) |
| --- | --- | --- | --- | --- |
| < 100 nM | 100 to 5000 nM | CCOc1ncc(C(F)(F)F)cc1S(=O)(=O)N1C[C@H](CCc2n[nH]c(=O)o2)Oc2ccc(/C=C(\C)c3c(F)cccc3Cl)cc21 | **** (a value greater than 200) | ** (a value in the range of greater than 90 to 150) |
| < 100 nM | 100 to 5000 nM | CCn1cc(S(=O)(=O)N2C[C@H](CCc3n[nH]c(=O)o3)Oc3ccc(/C=C/c4c(Cl)cccc4C(F)(F)F)cc32)c(OCCO)n1 | **** (a value greater than 200) | ** (a value in the range of greater than 90 to 150) |
| < 100 nM | 100 to 5000 nM | C/C(=C\c1ccc2c(c1)N(S(=O)(=O)c1cccc(C(F)(F)F)c1)C[C@H](CCn1ccnc1C)O2)c1c(F)cccc1Cl | *** (a value in the range of greater than 150 to 200) | ** (a value in the range of greater than 90 to 150) |
| < 100 nM | 100 to 5000 nM | COc1cc(S(=O)(=O)N2C[C@H](CCOc3noc(=O)[nH]3)Oc3ccc(/C=C(\C)c4c(F)cccc4Cl)cc32)ccc1F | *** (a value in the range of greater than 150 to 200) | **** (a value greater than 200) |
| < 100 nM | 100 to 5000 nM | C/C(=C\c1ccc2c(c1)N(S(=O)(=O)c1cccc(C(F)(F)F)c1)C[C@H](CCc1n[nH]c(=O)o1)O2)c1c(F)cccc1Cl | ** (a value in the range of greater than 90 to 150) | ** (a value in the range of greater than 90 to 150) |
| < 100 nM | 100 to 5000 nM | O=c1[nH]nc(CC[C@H]2CN(S(=O)(=O)c3cccc(C(F)(F)F)c3)c3cc(/C=C/c4ncccc4C(F)(F)F)ccc3O2)o1 | *** (a value in the range of greater than 150 to 200) | ** (a value in the range of greater than 90 to 150) |
| < 100 nM | 100 to 5000 nM | C/C(=C\c1ccc2c(c1)N(S(=O)(=O)c1cccc(C(F)(F)F)c1)C[C@H](CCCn1ccnn1)O2)c1c(F)cccc1Cl | *** (a value in the range of greater than 150 to 200) | ** (a value in the range of greater than 90 to 150) |
| < 100 nM | > 10000 nM | C/C(=C\c1ccc2c(c1)N(S(=O)(=O)c1cccc(C(F)(F)F)c1)[C@H](C)[C@H](Cn1ccnn1)C2)c1c(F)cccc1Cl | *** (a value in the range of greater than 150 to 200) | * (a value in the range of 40 to 90) |
| < 100 nM | 5000 to 10000 nM | C/C(=C\c1ccc2c(c1)N(S(=O)(=O)c1cccc(C(F)(F)F)c1)C[C@H](Oc1n[nH]c(=O)[nH]1)C2)c1c(F)cccc1Cl | *** (a value in the range of greater than 150 to 200) | ** (a value in the range of greater than 90 to 150) |
| < 100 nM | 100 to 5000 nM | CCOc1nn(CC)cc1S(=O)(=O)N1C[C@H](CCOc2noc(=O)[nH]2)Oc2ccc(/C=C(\C)c3c(F)cccc3Cl)cc21 | *** (a value in the range of greater than 150 to 200) | ** (a value in the range of greater than 90 to 150) |
| < 100 nM | 100 to 5000 nM | C/C(=C\c1ccc2c(c1)N(S(=O)(=O)c1cccc(C(F)(F)F)c1)[C@H](C)[C@H](Cn1ccnc1)C2)c1c(F)cccc1Cl | *** (a value in the range of greater than 150 to 200) | ** (a value in the range of greater than 90 to 150) |
